The results in this text go back to ChEMBL document CHEMBL5576064, “Development of carbonic anhydrase IX-targeting molecular-targeted photodynamic therapy” (Bioorg Med Chem Lett, 2024).

As usually defined, the IC50 is the concentration needed to halve the response being measured.

Molecules are shown by their SMILES. Calls of active or inactive are those of the source. No cut-off for these calls is given here.

Series [1] concerns U-87 MG. Kind of series: Photodynamic antitumor activity against human U87 cells assessed as inhibition of cell growth incubated for 60 mins followed by compound washout and light irradiation measured after 72 hrs by MTT assay. Type of series: functional, cell-based, U-87MG ATCC. Particulars: light or radiation study.
Series [2] has as its target Carbonic anhydrase 9 (Homo sapiens) (UniProt Q16790). Kind of series: Inhibition of carbonic anhydrase IX in human A549 cells assessed as downregulation of CAIX expression at 1 uM incubated for 60 mins by Western blotting analysis. It is filed as cell-based. In general terms: A western blot detects proteins with antibodies after separation by electrophoresis.
For series [3], the system named is U-87 MG. As to the kind of experiment: Photodynamic antitumor activity against human U87 cells assessed as inhibition of cell growth at 1 uM incubated for 60 mins followed by compound washout and addition of ROS scavenger Trolox and light irradiation measured after 72 hrs by MTT assay. It is filed as functional, cell-based. The conditions noted are these: U-87MG ATCC. (In general: Tetrazolium assays rely on reduction of a dye to a coloured formazan, in cell work by metabolically active cells.)

For series [4], the target named is Carbonic anhydrase 9 (Homo sapiens) (UniProt Q16790). Kind of series: Inhibition of carbonic anhydrase IX in human U87 cells assessed as downregulation of CAIX expression at 1 uM incubated for 60 mins followed by compound washout and 540 nm light irradiation measured after 15 mins by Western blotting analysis. It is filed as cell-based.
Series [5] relates to A549. As to the kind of experiment: Photodynamic antitumor activity against human A549 cells assessed as inhibition of cell growth at 0.001 to 30 uM incubated for 60 mins followed by compound washout and light irradiation measured after 72 hrs by MTT assay. It is filed as functional, cell-based. The conditions noted are these: dose 0.001-30 µM.
For series [6], the target named is Carbonic anhydrase 9 (Homo sapiens) (UniProt Q16790). Kind of series: Inhibition of carbonic anhydrase IX in human U87 cells assessed as downregulation of CAIX expression at 1 uM incubated for 60 mins followed by compound washout and 540 nm light irradiation measured after 15 mins by Hoechst 33342 staining based immunostaining analysis. Type of series: cell-based.

Series [7] relates to U-87 MG. Kind of series: Photodynamic antitumor activity against human U87 cells assessed as inhibition of cell growth at 0.001 to 30 uM incubated for 60 mins followed by compound washout and light irradiation measured after 72 hrs by MTT assay. Type of series: functional, cell-based. The conditions noted are these: U-87MG ATCC, dose 0.001-30 µM.
Series [8] deals with 4T1. Kind of series: Photodynamic antitumor activity against mouse 4T1 cells implanted mouse model assessed as increase in tumor degeneration at 5 mg/kg,TOP administration followed by light irradiation measured after 12 days. It is filed as functional, organism-based. Particulars: time 12.0 day.
Series [9] in a line: Toxicity in mouse implanted with mouse 4T1 cells assessed as change in body weight at 5 mg/kg,TOP administration followed by light irradiation measured after 12 days. It is filed as organism-based. Particulars: in vivo, topical_or_ocular, 288 h, time 12 day.
Series [10] deals with U-87 MG. Kind of series: Photodynamic antitumor activity against human U87 cells assessed as inhibition of cell growth at 1 uM incubated for 60 mins followed by compound washout and addition of ROS scavenger NaN3 and light irradiation measured after 72 hrs by MTT assay. It is filed as functional, cell-based. The conditions noted are these: U-87MG ATCC.
The test system of series [11] is U-87 MG. Kind of series: Photodynamic antitumor activity against human U87 cells assessed as inhibition of cell growth at 1 uM incubated for 60 mins followed by compound washout and addition of ROS scavenger D-mannitol and light irradiation measured after 72 hrs by MTT assay. It is filed as functional, cell-based. Particulars: U-87MG ATCC.
For series [12], the system named is A549. Kind of series: Antitumor activity against human A549 cells assessed as inhibition of cell growth at 0.001 to 30 uM incubated for 60 mins by MTT assay. It is filed as functional, cell-based. The conditions noted are these: dose 0.001-30 µM.
The subject of series [13] is 4T1. Kind of series: Photodynamic antitumor activity against mouse 4T1 cells implanted mouse model assessed as increase in tumor necrosis at 5 mg/kg,TOP administration followed by light irradiation measured after 12 days. It is filed as functional, organism-based. Particulars: time 12.0 day.
Series [14] deals with 4T1. As to the kind of experiment: Photodynamic antitumor activity against mouse 4T1 cells implanted mouse model assessed as reduction in tumor growth at 5 mg/kg,TOP administration measured after 12 days. The conditions noted are these: time 12.0 day. It is filed as functional, organism-based.
In series [15] the test system is U-87 MG. Kind of series: Photodynamic antitumor activity against human U87 cells assessed as inhibition of cell growth at 1 uM incubated for 60 mins followed by compound washout and addition of ROS scavenger Tiron and light irradiation measured after 72 hrs by MTT assay. Type of series: functional, cell-based. Particulars: U-87MG ATCC.
The subject of series [16] is U-87 MG. As to the kind of experiment: Photodynamic antitumor activity against human U87 cells assessed as inhibition of cell growth at 1 uM incubated for 60 mins followed by compound washout and addition of ROS scavenger NaN3 upto 30 uM and light irradiation measured after 72 hrs by MTT assay. Type of series: functional, cell-based. The conditions noted are these: U-87MG ATCC.

Series [17] deals with A549. Kind of series: Photodynamic antitumor activity against human A549 cells assessed as inhibition of cell growth incubated for 60 mins followed by compound washout and light irradiation measured after 72 hrs by MTT assay. Type of series: functional, cell-based. The conditions noted are these: A549, light or radiation study.
Series [18] concerns the target Carbonic anhydrase 9 (Homo sapiens) (UniProt Q16790). As to the kind of experiment: Inhibition of carbonic anhydrase IX in human U87 cells assessed as downregulation of CAIX expression at 1 uM incubated for 60 mins by Western blotting analysis. Type of series: cell-based.
The subject of series [19] is 4T1. As to the kind of experiment: Photodynamic antitumor activity against mouse 4T1 cells implanted mouse model assessed as reduction in tumor growth at 5 mg/kg,TOP administration followed by light irradiation measured after 12 days. Particulars: time 12.0 day. Type of series: functional, organism-based.
The test system of series [20] is U-87 MG. As to the kind of experiment: Photodynamic antitumor activity against human U87 cells assessed as increase in ATP release incubated for 1 hr followed by compound washout and 540 nm light irradiation measured upto 10 mins by luciferase assay. The conditions noted are these: U-87MG ATCC. Type of series: functional, cell-based.
Series [21] is described as follows: Toxicity in mouse implanted with mouse 4T1 cells assessed as change in body weight at 5 mg/kg,TOP administration measured after 12 days. It is filed as organism-based. Particulars: in vivo, topical_or_ocular, 288 h, time 12 day.
The target in series [22] is Carbonic anhydrase 9 (Homo sapiens) (UniProt Q16790). As to the kind of experiment: Inhibition of carbonic anhydrase IX in human A549 cells assessed as downregulation of CAIX expression at 1 uM incubated for 60 mins followed by compound washout and 540 nm light irradiation measured after 15 mins by Western blotting analysis. Type of series: cell-based.
Series [23] relates to U-87 MG. Kind of series: Photodynamic antitumor activity against human U87 cells assessed as inhibition of cell growth at 1 uM incubated for 60 mins followed by compound washout and addition of ROS scavenger NaP and light irradiation measured after 72 hrs by MTT assay. It is filed as functional, cell-based. The conditions noted are these: U-87MG ATCC.
In series [24] the test system is U-87 MG. Kind of series: Antitumor activity against human U87 cells assessed as inhibition of cell growth at 0.001 to 30 uM incubated for 60 mins by MTT assay. Type of series: functional, cell-based. The conditions noted are these: U-87MG ATCC, dose 0.001-30 µM.
Series [25] addresses Carbonic anhydrase 9 (Homo sapiens) (UniProt Q16790). Kind of series: Inhibition of carbonic anhydrase IX in human U87 cells assessed as nuclear localization of CAIX at 1 uM incubated for 60 mins followed by compound washout and 540 nm light irradiation measured after 15 mins by Hoechst 33342 staining based immunostaining analysis. Type of series: cell-based.

As for `Cc1c(I)c(C)n2c1C=C1C=C(I)C(CCC(=O)NCCCCCCNC(=O)c3ccc(S(N)(=O)=O)cc3)=[N+]1[B-]2(F)F`, the values for the IC50 in the series on U-87 MG [1] and in the series on A549 [17] were 50 nM and 200 nM, respectively. Also, the inhibition entry in [2] and in [18] was “inactive” each time. Besides, the outcome in the series with U-87 MG [3], in the series with 4T1 [8], in the series with U-87 MG [11], in the series on 4T1 [13], in the series with U-87 MG [15] and in the series with 4T1 [19] was Active. For the same molecule, the result with U-87 MG [20] and in the series on U-87 MG [23] was Active. Also, the inhibition result in series [4], in [6], in series [22] and in series [25] was “Active” in each case. For the same molecule, the Activity entry with A549 [5] was “Dose-Dependent Effect”; with U-87 MG [7], “Dose-Dependent Effect”; in series [9], “Non-Toxic”; in series [21] it was “Non-Toxic”. The result with U-87 MG [10], in the series on A549 [12], in the series with 4T1 [14], in the series on U-87 MG [16] and with U-87 MG [24] was inactive.
As for `Cc1cc(C)n2c1C=C1C=CC(CCC(=O)NCCCCCCNC(=O)c3ccc(S(N)(=O)=O)cc3)=[N+]1[B-]2(F)F`, the IC50 with U-87 MG [1] came to 18900 nM; in the series with A549 [17] it was 21300 nM.
Regarding `Cc1c(Br)c(C)n2c1C=C1C=C(Br)C(CCC(=O)NCCCCCCNC(=O)c3ccc(S(N)(=O)=O)cc3)=[N+]1[B-]2(F)F`, the IC50 in the series with U-87 MG [1] came to 300 nM; in the series on A549 [17], 400 nM. Further, the inhibition result in series [2] and in series [18] was “inactive” in each case. Moreover, the inhibition entry in series [4] and in [22] was “Active” each time. The Activity result in the series on A549 [5] and in the series with U-87 MG [7] was “Dose-Dependent Effect” throughout. Moreover, the result in the series on A549 [12] and in the series with U-87 MG [24] was inactive.
